Results on eleven compounds are retold here after ChEMBL document CHEMBL1201862, “PubChem BioAssay data set” (2004).

Test systems include SK-MEL-2; MCF7; SF-295; PC-3; SR; SW-620; HCC 2998; HOP-92; EKVX; U-251; RXF 393; NCI-H460; A498; DU-145; HCT-15; HT-29; K562; NCI/ADR-RES; M14.
What all share (assay): inhibition of tumour cell growth, NCI panel, 48 h

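Step 1: Grow cells in 96-well plates. Step 2: Expose to compound for 48 hours at 5 concentrations. Step 3: Interpolate endpoints linearly; if unreached, use highest concentration. GI50 marks 50% less growth.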 Active and inactive are the calls of the source. No stated cut-off is given here; in the data, active = GI50 up to about 1.1 µM and inactive = higher.

Consider `CN(C(=O)c1ccncc1)c1ccccc1`, for which the GI50 in the test on SK-MEL-2, with MCF7, in the test with SF-295, in the test on PC-3, in the test with SR and in the test with SW-620 was > 100 µM (inactive) in each case. Besides, the GI50 in the test with HCC 2998, in the test on HOP-92, in the test with EKVX, in the test with U-251, with RXF 393 and in the test with NCI-H460 was > 100 µM (inactive) in each case. The GI50 in the test with A498 is > 100 µM (inactive); with DU-145, > 100 µM (inactive); with HCT-15, greater than 100 µM; in the test with HT-29, > 100 µM (inactive); in the test with K562 it was > 100 µM (inactive); with NCI/ADR-RES, > 100 µM (inactive). For the same compound, in the test on M14, the GI50 was > 100 µM (inactive).
For the compound `CC(C)NC(=O)OCc1c(COC(=O)NC(C)C)c(-c2ccc[n+](COC(=O)Cc3ccccc3)c2)n2c1CCC2`, the GI50 in the test with SK-MEL-2 was 28.1 µM (inactive); in the test with MCF7 it was 25.1 µM (inactive); with SF-295, 35 µM (inactive); in the test with PC-3 it was 34 µM (inactive); with SR, 3.15 µM (inactive); in the test on SW-620 it was 22.5 µM (inactive). For the same compound, the GI50 in the test with HCC 2998 was > 100 µM (inactive); in the test with HOP-92, 16.4 µM (inactive); in the test with EKVX, 85.5 µM (inactive); with U-251, 29.1 µM (inactive); with RXF 393, 23 µM (inactive); in the test with NCI-H460, 19.8 µM (inactive). Also, the GI50 was 22.5 µM (inactive) in the test with A498; 25.4 µM (inactive) in the test with DU-145; 55.5 µM in the test on HCT-15; 26.1 µM (inactive) with HT-29; 71 µM (inactive) in the test with K562; 36.6 µM (inactive) in the test on NCI/ADR-RES. In addition, the GI50 in the test on M14 was 40.2 µM (inactive).
As for `COC(=O)[C@H](CCSC)NC(=O)c1ccc(CNC(=O)/C=C/c2cccc(Oc3ccccc3)c2)cc1`, the GI50 is 14.8 µM (inactive) with SK-MEL-2; 38.6 µM (inactive) in the test with MCF7; > 78.5 µM (inactive) with SF-295; > 75 µM (inactive) with PC-3; 19.7 µM (inactive) with SR; 77.4 µM (inactive) in the test on SW-620. For the same compound, the GI50 is 28.5 µM (inactive) with HCC 2998; 9.75 µM (inactive) with HOP-92; 67.3 µM (inactive) in the test on EKVX; > 100 µM (inactive) with U-251; 16.7 µM (inactive) with RXF 393; 60.5 µM (inactive) in the test on NCI-H460. Further, the GI50 in the test with A498 was 19.8 µM (inactive); in the test on DU-145 it was > 100 µM (inactive); with HCT-15 it was greater than 62.8 µM; with HT-29, > 100 µM (inactive); in the test on K562, 20.7 µM (inactive); with NCI/ADR-RES, 43 µM (inactive). Besides, the GI50 in the test on M14 is 13.5 µM (inactive).
On to `C[C@@]1(O)C[C@@H](N2C(=O)O[C@@H](c3ccccc3)[C@H]2c2ccccc2)[C@@H]1COCc1ccccc1`, for which the GI50 in the test on SK-MEL-2 is 12.7 µM (inactive); with MCF7 it was 24.5 µM (inactive); in the test with SF-295 it was 16.4 µM (inactive); in the test with PC-3 it was 15.9 µM (inactive); in the test on SR, 15 µM (inactive); in the test with SW-620 it was 26 µM (inactive). In addition, the GI50 with HCC 2998 is 19.8 µM (inactive); with HOP-92 it was 19 µM (inactive); in the test with EKVX it was 20.5 µM (inactive); in the test on U-251 it was 14.6 µM (inactive); in the test with RXF 393 it was 18.8 µM (inactive); with NCI-H460, 17.7 µM (inactive). The GI50 in the test on A498 was 18.4 µM (inactive); with DU-145, 28.5 µM (inactive); in the test with HCT-15 it was 24.4 µM; in the test with HT-29 it was 17.9 µM (inactive); with K562 it was 19.4 µM (inactive); in the test on NCI/ADR-RES, 15.2 µM (inactive). In the test with M14, the GI50 is 15.8 µM (inactive).
For the compound `COc1ccc(N2C(=O)C3c4[nH]c5ccc(OCc6ccccc6)cc5c4C4CCC(c5ccccc5)CC4C3C2=O)cc1` (centres undefined), the GI50 is 23.1 µM (inactive) with SK-MEL-2; 29.6 µM (inactive) in the test on MCF7; 11 µM (inactive) with SF-295; 8.53 µM (inactive) with PC-3; 2.37 µM (inactive) with SR; 2.02 µM (inactive) in the test with SW-620. Further, the GI50 is 4.84 µM (inactive) in the test on HCC 2998; 3.08 µM (inactive) in the test on HOP-92; 19.6 µM (inactive) with EKVX; 2.54 µM (inactive) in the test with U-251; 6.49 µM (inactive) in the test with RXF 393; 4.74 µM (inactive) in the test on NCI-H460. Besides, the GI50 with A498 was 23.9 µM (inactive); with DU-145, 8.07 µM (inactive); with HCT-15 it was 11.6 µM; in the test with HT-29, 11 µM (inactive); in the test on K562, 4.37 µM (inactive); in the test with NCI/ADR-RES it was 18.8 µM (inactive). Also, the GI50 in the test on M14 is 6.78 µM (inactive).
For the compound `O=C(NCc1cccnc1)C(=O)NCc1cccnc1`, the GI50 with SK-MEL-2 is > 100 µM (inactive); with MCF7, > 100 µM (inactive); in the test on SF-295, > 100 µM (inactive); in the test with PC-3, > 100 µM (inactive); in the test on SR, 81.1 µM (inactive); in the test on SW-620, > 100 µM (inactive). Also, the GI50 with HCC 2998, in the test on HOP-92, with EKVX, with U-251, in the test with RXF 393 and with NCI-H460 was > 100 µM (inactive) each time. For the same compound, the GI50 in the test on A498 is > 100 µM (inactive); with DU-145, > 100 µM (inactive); in the test with HCT-15 it was greater than 100 µM; in the test with HT-29, > 100 µM (inactive); in the test with K562, > 100 µM (inactive); with NCI/ADR-RES, > 100 µM (inactive). The GI50 in the test on M14 is > 100 µM (inactive).
As for `Nc1nc(CCl)nc(N2CCOCC2)n1`, the GI50 in the test with SK-MEL-2 was > 100 µM (inactive); with MCF7 it was 28.6 µM (inactive); in the test with SF-295, 29.8 µM (inactive); with PC-3, 72.1 µM (inactive); in the test with SR it was 21.3 µM (inactive); in the test with SW-620, 24.4 µM (inactive). Besides, the GI50 in the test with HCC 2998 was 17.7 µM (inactive); in the test with HOP-92, 16.8 µM (inactive); with EKVX it was 17.6 µM (inactive); in the test with U-251, 22.4 µM (inactive); with RXF 393, 36.6 µM (inactive); in the test with NCI-H460, 17.7 µM (inactive). Also, the GI50 with A498 is 33 µM (inactive); in the test on DU-145 it was 38.4 µM (inactive); in the test with HCT-15 it was 16 µM; in the test with HT-29, 32.7 µM (inactive); with K562 it was 23.4 µM (inactive); with NCI/ADR-RES, 29.4 µM (inactive). For the same compound, the GI50 in the test with M14 is 27.1 µM (inactive).
As for `NC1CCCCC1NCCNC1CCCCC1N` (centres undefined), the GI50 in the test on SK-MEL-2 was > 100 µM (inactive); in the test on MCF7, 45.9 µM (inactive); in the test with SF-295 it was > 100 µM (inactive); with PC-3, > 100 µM (inactive); in the test on SR, > 100 µM (inactive); with SW-620 it was 41.6 µM (inactive). The GI50 is 32.8 µM (inactive) with HCC 2998; 41.5 µM (inactive) with HOP-92; > 100 µM (inactive) in the test on EKVX; 30.5 µM (inactive) in the test on U-251; > 100 µM (inactive) with RXF 393; > 100 µM (inactive) in the test on NCI-H460. Besides, the GI50 in the test with A498 was > 100 µM (inactive); in the test on DU-145, > 100 µM (inactive); in the test on HCT-15, greater than 100 µM; in the test on HT-29, 17.7 µM (inactive); in the test with K562 it was 49.2 µM (inactive); in the test with NCI/ADR-RES, > 100 µM (inactive). Further, the GI50 in the test with M14 was > 100 µM (inactive).
Consider `OCC1OC(O[C@H]2CN3[C@H](O)[C@@H](O)[C@H](O)[C@H]3C2O)C(O)C(O)C1O` (some centres undefined), for which the GI50 in the test on SK-MEL-2, in the test with MCF7, with SF-295, in the test on PC-3, in the test on SR and in the test with SW-620 was > 100 µM (inactive) each time. In addition, the GI50 in the test on HCC 2998, in the test on HOP-92, with EKVX, with U-251, in the test with RXF 393 and with NCI-H460 was > 100 µM (inactive) each time. Also, the GI50 in the test on A498 was > 100 µM (inactive); in the test with DU-145, > 100 µM (inactive); with HCT-15, greater than 100 µM; with HT-29, > 100 µM (inactive); in the test with K562, > 100 µM (inactive); in the test on NCI/ADR-RES, > 100 µM (inactive). Besides, the GI50 with M14 was > 100 µM (inactive).
For the compound `O=P1(Oc2ccccc2)NCc2ncccc2O1` (centres undefined), the GI50 in the test with SK-MEL-2, in the test on MCF7, in the test on SF-295, in the test on PC-3, in the test with SR and in the test with SW-620 was > 100 µM (inactive) in each case. Besides, the GI50 in the test on HCC 2998, in the test with HOP-92, with EKVX, in the test on U-251, with RXF 393 and in the test with NCI-H460 was > 100 µM (inactive) throughout. The GI50 with A498 is > 100 µM (inactive); with DU-145, > 100 µM (inactive); with HCT-15 it was greater than 100 µM; in the test with HT-29, > 100 µM (inactive); in the test with K562 it was > 100 µM (inactive); in the test on NCI/ADR-RES, > 100 µM (inactive). Moreover, the GI50 with M14 is > 100 µM (inactive).
Consider `CCOC(=O)NN(C(=O)OCC)C(C(=O)C1=CCCCC1)N(NC(=O)OCC)C(=O)OCC`, for which the GI50 in the test with SK-MEL-2, with MCF7, in the test with SF-295, in the test with PC-3, with SR and in the test with SW-620 was > 100 µM (inactive) in each case. For the same compound, the GI50 with HCC 2998, with HOP-92, in the test with EKVX, with U-251, in the test on RXF 393 and with NCI-H460 was > 100 µM (inactive) each time. Besides, the GI50 is 22.6 µM (inactive) with A498; > 100 µM (inactive) in the test on DU-145; greater than 100 µM in the test with HCT-15; > 100 µM (inactive) in the test with HT-29; > 100 µM (inactive) in the test on K562; > 100 µM (inactive) with NCI/ADR-RES. Further, the GI50 with M14 is > 100 µM (inactive).
